# Measurements taken from patent publication US20220040150A1, “I[…] ADMI[…] FOR DMT-ASSISTED PSYCHOTHERAPY” (Universitatsspital Basel, priority 2020, published 2022).
# Where two headings read alike, the source gives them in different places.
# How the values were obtained:
# [1] = 25 mg (0.3 mg/kg) bolus over 30 seconds; cited from earlier work
# [2] = 2 minutes after iv bolus of 14 mg (approximately 0.2 mg/kg); cited from earlier work
# 5-HT1 receptor = target: T1, 5-HT1 receptor (Homo sapiens, UniProt P08908); settings: in contrast to psilocybin; cited from earlier work
# T1 sequence (P08908 1-422): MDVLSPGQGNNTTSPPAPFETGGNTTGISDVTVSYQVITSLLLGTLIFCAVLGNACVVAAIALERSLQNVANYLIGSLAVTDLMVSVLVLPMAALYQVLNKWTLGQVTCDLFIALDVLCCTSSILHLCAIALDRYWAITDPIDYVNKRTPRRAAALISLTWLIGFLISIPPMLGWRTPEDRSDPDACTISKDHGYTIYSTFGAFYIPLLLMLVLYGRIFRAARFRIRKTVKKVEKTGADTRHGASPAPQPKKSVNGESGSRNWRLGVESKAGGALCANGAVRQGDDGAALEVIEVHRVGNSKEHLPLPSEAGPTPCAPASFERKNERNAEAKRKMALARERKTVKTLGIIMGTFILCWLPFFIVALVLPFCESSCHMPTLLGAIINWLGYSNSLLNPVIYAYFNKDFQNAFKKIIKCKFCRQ
# [3] = test system: healthy subjects with previous hallucinogen experience; settings: cited from earlier work
# healthy subjects [4] = assay: Example 1 clinical study: 5D-ASC scale
# [5] = 0.4 mg/kg iv bolus, cited from earlier work
# serotonin transporter = serotonin transporter (Homo sapiens, UniProt P31645); settings: in contrast to LSD; cited from earlier work
# Sequence of serotonin transporter (P31645 whole entry): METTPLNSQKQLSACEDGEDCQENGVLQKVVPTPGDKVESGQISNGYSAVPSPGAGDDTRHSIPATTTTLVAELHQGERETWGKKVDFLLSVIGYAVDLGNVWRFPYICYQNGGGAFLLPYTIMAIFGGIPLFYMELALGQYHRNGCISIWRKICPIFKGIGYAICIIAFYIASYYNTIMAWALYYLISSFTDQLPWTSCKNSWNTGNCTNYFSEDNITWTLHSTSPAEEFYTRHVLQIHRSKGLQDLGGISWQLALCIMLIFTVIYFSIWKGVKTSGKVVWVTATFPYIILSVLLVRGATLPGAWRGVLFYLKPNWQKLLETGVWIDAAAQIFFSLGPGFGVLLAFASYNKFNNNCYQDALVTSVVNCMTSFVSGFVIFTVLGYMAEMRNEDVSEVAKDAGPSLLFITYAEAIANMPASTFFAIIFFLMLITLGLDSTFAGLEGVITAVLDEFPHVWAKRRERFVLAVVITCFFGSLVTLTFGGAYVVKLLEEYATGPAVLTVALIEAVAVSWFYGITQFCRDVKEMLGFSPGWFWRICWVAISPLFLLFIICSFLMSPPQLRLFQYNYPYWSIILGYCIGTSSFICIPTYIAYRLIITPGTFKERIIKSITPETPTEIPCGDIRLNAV
# [6] = cited from earlier work
# healthy subjects [7] = assay: Example 1 clinical study: subjective effects rating over time
# 5-HT1A receptor = target: T2, 5-HT1A receptor (Homo sapiens, UniProt P08908); settings: sub-hallucinogenic dose of 0.1 mg/kg DMT, twelve subjects; cited from earlier work
# T2 construct: host or cells: human volunteers (in vivo)
# T2 sequence (P08908 1-422): T1 sequence (P08908 1-422)
# [8] = DMT plasma concentrations after intravenous bolus, pilot study (Timmermann et al., 2019); format: in vivo; settings: human, consistent with measurements of Timmermann 2019 and Strassman 1994, may represent redistribution, read-out: approximate elimination half-life
# Description: A more recent pilot study also assessed plasma concentrations of DMT after intravenous bolus administration of 7-20 mg of DMT in a small number of subjects (Timmermann et al., 2019). DMT blood concentrations were approximately 56 ng/mL 2 minutes after administration of 14 mg (corresponding to approximately 0.2 mg/kg) (Timmermann et al., 2019) in line with the aforementioned data by Strassman (Strassman et al., 1994). The measurements from both studies are consistent with an approximate elimination half-life of 5-10 minutes. However, this may represent rapid redistribution and metabolism and may therefore be shorter than the true elimination half-life (see above). The study only used a bolus, so it is different from the present invention. The above descriptions illustrate that there is limited information on the effects of intravenous DMT administration. However, no study has validly determined the elimination half-life of DMT and other pharmacokinetic parameters and this will be done within the current invention to have better and rational basis on dosing.
# [9] = perfusion with placebo bolus, two subjects
compound,measurement,setting,value
"CN(C)CCc1c[nH]c2ccccc12 [DMT, N,N-dimethyltryptamine]",effect site concentration (simulated),[1],over 100 ng/mL
same,initial plasma concentration spike (simulated),[1],over 200 ng/mL
same,DMT blood concentrations,[2],approximately 56 ng/mL
same,affinity to the 5-HT1 receptor,5-HT1 receptor,greater affinity
same,Average heart rate,[3]; at 2 minutes,100 beats/min
same,mean arterial blood pressure,[3]; at 2 minutes,108 mm Hg
same,"blood pressure, heart rate, pupil size, body core temperature, blood levels of ACTH, cortisol, PRL, β-endorphin and growth hormone",[3]; iv bolus,increased
same,Anxiety (5D-ASC),healthy subjects [4]; bolus and perfusion,almost absent
same,5D-ASC scores,"healthy subjects [4]; bolus and perfusion compared with perfusion alone, mean in three subjects",more pronouncedly increased 5D-ASC scores
same,5D-ASC ratings,healthy subjects [4]; perfusion with placebo bolus,increased ratings of Oceanic Boundlessness and lower ratings in Anxious Ego-Dissolution and Visionary Restructuralization
same,Blood levels of DMT base,[5]; 2 minutes,~90 ng/mL
same,Blood levels of DMT base,[5]; 5 minutes,~42 ng/mL
same,Blood levels of DMT base,[5]; 10 minutes,~28 ng/mL
same,Blood levels of DMT base,[5]; 15 minutes,~17 ng/mL
same,Blood levels of DMT base,[5]; 30 minutes,~5 ng/mL
same,interaction with the serotonin transporter,serotonin transporter,interacts
same,duration of action,[6]; administered parenterally,less than 20 min
same,activity when administered orally,"[6]; oral, without MAO inhibition",inactive
same,duration of the psychedelic state,healthy subjects [7]; 90 minutes perfusion,approximately 90 minutes
same,time to new steady state after starting the perfusion,healthy subjects [7]; available data from Example 1,approximately 20 minutes
same,ratings of bad drug effects and anxiety,"healthy subjects [7]; bolus and perfusion, 2-5 minutes after the bolus",small increases
same,ratings of any drug effects,"healthy subjects [7]; bolus and perfusion, mean in three subjects",maximal within seconds
same,ratings of good drug effects,"healthy subjects [7]; bolus and perfusion, three subjects",maximal immediately after the DMT bolus administration and up to 30 minutes
same,bad drug effects and anxiety ratings,healthy subjects [7]; perfusion with placebo bolus,no bad drug effects and no anxiety
same,time over which good drug effects steadily increased after start of the perfusion,healthy subjects [7]; perfusion with placebo bolus,30 min
same,time to disappearance of good drug effects after stopping the perfusion,healthy subjects [7]; perfusion with placebo bolus,less than 10 minutes
same,description of the DMT experience,"healthy subjects [7]; perfusion with placebo bolus, dose used in the example",overall similar to LSD at a moderate dose of 0.05-0.1 mg LSD base
same,time over which any drug effects steadily increased after starting the perfusion,healthy subjects [7]; [9],30 min
same,time to disappearance of effect after perfusion ended at 90 minutes,healthy subjects [7]; [9],less than 10 minutes
same,enhancement of DMT effects by pindolol pre-treatment,5-HT1A receptor,two to three times
same,half-life,[8],5 to 10 min
